Values quoted from earlier work as cited in patent US7842686B2, “CGRP receptor antagonists” (Vertex Pharmaceuticals Incorporated, priority 2006, dated 2010).
No end group written: not given here.

Experiments:
[1] = tested on: acute attacks of migraine; conditions: clinical trials (Olesen et al. 2004)
facial blood flow [2] = conditions: marmoset, electrical stimulation of the trigeminal ganglion
facial blood flow [3] = conditions: rat, trigeminal ganglion stimulation
middle meningeal artery = conditions: rats, electrical stimulation of the dura mater, prior administration

Compound	efficacy in acute attacks of migraine [1]	effect on increase in facial blood flow (facial blood flow [2])	effect on increase of facial blood flow (facial blood flow [3])	effect on increase of middle meningeal artery diameter (middle meningeal artery)
NCCCC[C@H](NC(=O)[C@@H](Cc1cc(Br)c(O)c(Br)c1)NC(=O)N1CCC(N2Cc3ccccc3NC2=O)CC1)C(=O)N1CCN(c2ccncc2)CC1 [BIBN4096BS]	effective in treating acute attacks of migraine	could be blocked		
CGRP(8-37): a peptide CGRP antagonist (VTHRLAGLLSRSGGVVKNNFVPTNVGSKAF-NH2; ends and bridges not checked; UniProt P06881 90-119, looked up, fragment)			inhibited	blocked
